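A five-concentration, 48-hour dose response in 96-well plates underlies each endpoint, interpolated linearly between surrounding concentrations. Abbreviation: GI50, concentration required for 50% inhibition of growth.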 Active and inactive are the calls of the source. No stated cut-off is given here; in the data, active = GI50 up to about 1.1 µM and inactive = higher.
Experiments:
Test in all cases: NCI-60 cell line screen, 48 h
K562 = system: K562
IGROV-1 = system: IGROV-1
Malme-3M = system: Malme-3M
MCF7 = system: MCF7
PC-3 = system: PC-3
M14 = system: M14
NCI/ADR-RES = system: NCI/ADR-RES
SK-MEL-5 = system: SK-MEL-5
CAKI-1 = system: CAKI-1
NCI-H226 = system: NCI-H226
SF-295 = system: SF-295
UACC-62 = system: UACC-62
SW-620 = system: SW-620
XF498 = system: XF498
EKVX = system: EKVX
KM12 = system: KM12
Hs-578T = system: Hs-578T
SNB-19 = system: SNB-19
RXF 393 = system: RXF 393
DMS-114 = system: DMS-114
MDA-MB-435 = system: MDA-MB-435
MDA-MB-231 = system: MDA-MB-231
SNB-75 = system: SNB-75
SF-268 = system: SF-268
LOX IMVI = system: LOX IMVI
OVCAR-4 = system: OVCAR-4
SK-MEL-28 = system: SK-MEL-28
MOLT-4 = system: MOLT-4
SNB-78 = system: SNB-78
U-251 = system: U-251
NCI-H23 = system: NCI-H23
HCT-15 = system: HCT-15
KM-20L2 = system: KM-20L2
UACC-257 = system: UACC-257
DU-145 = system: DU-145
HOP-18 = system: HOP-18
TK-10 = system: TK-10
BT-549 = system: BT-549
RPMI-8226 = system: RPMI-8226
OVCAR-8 = system: OVCAR-8
ACHN = system: ACHN
SN12C = system: SN12C
DMS-273 = system: DMS-273
DLD-1 = system: DLD-1
A549 = system: A549
SF-539 = system: SF-539
MDA-N = system: MDA-N
HT-29 = system: HT-29
T47D = system: T47D
SR = system: SR
SK-MEL-2 = system: SK-MEL-2
HCT-116 = system: HCT-116
CCRF-CEM = system: CCRF-CEM
NCI-H460 = system: NCI-H460
OVCAR-3 = system: OVCAR-3
OVCAR-5 = system: OVCAR-5
HOP-62 = system: HOP-62
786-0 = system: 786-0
HCC 2998 = system: HCC 2998
HL-60 = system: HL-60
COLO 205 = system: COLO 205
M19-MEL = system: M19-MEL
SK-OV-3 = system: SK-OV-3
NCI-H522 = system: NCI-H522
UO-31 = system: UO-31
A498 = system: A498
RXF 631 = system: RXF 631

`O=C(O)Cc1cccc2c(=O)cc(-c3ccccc3)oc12` [MITOFLAXONE] was tested, and the GI50 (K562) was 239 µM (inactive), the GI50 (IGROV-1) was > 250 µM (inactive) and the GI50 (Malme-3M) was > 250 µM (inactive). For the same compound, the GI50 (MCF7) was 236 µM (inactive), the GI50 (PC-3) was > 250 µM (inactive) and the GI50 (M14) was > 250 µM (inactive). The GI50 (NCI/ADR-RES) was 222 µM (inactive), the GI50 (SK-MEL-5) was 230 µM (inactive) and the GI50 (CAKI-1) was 142 µM (inactive). The GI50 (NCI-H226) was 237 µM (inactive), the GI50 (SF-295) was 242 µM (inactive) and the GI50 (UACC-62) was > 250 µM (inactive). For the same compound, the GI50 (SW-620) was > 250 µM (inactive), the GI50 (XF498) was 33.7 µM (inactive) and the GI50 (EKVX) was 242 µM (inactive). The GI50 (KM12) was 240 µM (inactive), the GI50 (Hs-578T) was 149 µM (inactive) and the GI50 (SNB-19) was > 250 µM (inactive). The GI50 (RXF 393) was 244 µM (inactive), the GI50 (DMS-114) was 227 µM (inactive) and the GI50 (MDA-MB-435) was > 250 µM (inactive). The GI50 (MDA-MB-231) was > 250 µM (inactive), the GI50 (SNB-75) was 212 µM (inactive) and the GI50 (SF-268) was > 250 µM (inactive). The GI50 (LOX IMVI) was 243 µM (inactive), the GI50 (OVCAR-4) was 185 µM (inactive) and the GI50 (SK-MEL-28) was > 250 µM (inactive). The GI50 (MOLT-4) was > 209 µM (inactive), the GI50 (SNB-78) was > 250 µM (inactive) and the GI50 (U-251) was > 250 µM (inactive). For the same compound, the GI50 (NCI-H23) was > 250 µM (inactive), the GI50 (HCT-15) was 220 µM and the GI50 (KM-20L2) was > 250 µM (inactive). The GI50 (UACC-257) was > 250 µM (inactive), the GI50 (DU-145) was > 940 µM (inactive) and the GI50 (HOP-18) was 156 µM (inactive). The GI50 (TK-10) was > 250 µM (inactive), the GI50 (BT-549) was 204 µM (inactive) and the GI50 (RPMI-8226) was 244 µM (inactive). The GI50 (OVCAR-8) was > 175 µM (inactive), the GI50 (ACHN) was > 250 µM (inactive) and the GI50 (SN12C) was 238 µM (inactive). The GI50 (DMS-273) was > 250 µM (inactive), the GI50 (DLD-1) was > 250 µM (inactive) and the GI50 (A549) was 245 µM (inactive). For the same compound, the GI50 (SF-539) was > 250 µM (inactive), the GI50 (MDA-N) was 385 µM (inactive) and the GI50 (HT-29) was > 250 µM (inactive). For the same compound, the GI50 (T47D) was > 250 µM (inactive), the GI50 (SR) was 321 µM (inactive) and the GI50 (SK-MEL-2) was 153 µM (inactive). The GI50 (HCT-116) was 206 µM (inactive), the GI50 (CCRF-CEM) was 213 µM (inactive) and the GI50 (NCI-H460) was > 250 µM (inactive). For the same compound, the GI50 (OVCAR-3) was 235 µM (inactive), the GI50 (OVCAR-5) was 242 µM (inactive) and the GI50 (HOP-62) was 243 µM (inactive). For the same compound, the GI50 (786-0) was 71.4 µM (inactive), the GI50 (HCC 2998) was > 250 µM (inactive) and the GI50 (HL-60) was > 250 µM (inactive). For the same compound, the GI50 (COLO 205) was > 250 µM (inactive), the GI50 (M19-MEL) was > 250 µM (inactive) and the GI50 (SK-OV-3) was 242 µM (inactive). The GI50 (NCI-H522) was 228 µM (inactive), the GI50 (UO-31) was 147 µM (inactive) and the GI50 (A498) was 226 µM (inactive).
With `COc1cc2c(c(OC)c1OC)-c1ccc(OC)c(=O)cc1[C@@H](NC(C)=O)CC2` [COLCHICINE] the GI50 (K562) was 0.0135 µM (active), the GI50 (MCF7) was 0.0625 µM (active) and the GI50 (NCI/ADR-RES) was 0.845 µM (active). The GI50 (EKVX) was 49 µM (inactive), the GI50 (MDA-MB-435) was < 0.01 µM (active) and the GI50 (OVCAR-4) was 12.9 µM (inactive). The GI50 (MOLT-4) was 0.0237 µM (active), the GI50 (RXF 631) was 0.0363 µM (active) and the GI50 (KM-20L2) was < 0.0625 µM (active). For the same compound, the GI50 (DU-145) was 0.659 µM (active), the GI50 (HOP-18) was > 68.9 µM (inactive) and the GI50 (TK-10) was 23.7 µM (inactive). The GI50 (DLD-1) was 0.0625 µM (active), the GI50 (T47D) was > 78.3 µM (inactive) and the GI50 (HCT-116) was 0.0168 µM (active). For the same compound, the GI50 (OVCAR-5) was 7.18 µM (inactive), the GI50 (HL-60) was < 0.0625 µM (active) and the GI50 (NCI-H522) was 0.0119 µM (active). The GI50 (UO-31) was 0.56 µM (active).

Source: ChEMBL document CHEMBL1201862, “PubChem BioAssay data set” (2004)
